# From patent publication US11718600B2, “1,2,3-triazole inhibitors of P97 AAA ATPase activity” (University of Pittsburgh—Of the Commonwealth System of …, priority 2018, dated 2023)
# Target: p97 (Homo sapiens, UniProt P55072)
# Assay: BioMol Green ATPase assay
# Format: biochemical
# Conditions: 200 μM ATP
# From the text: Biomol Green (Enzo) is a […] from a biochemical reaction. Because of its high sensitivity, the assay is suitable for monitoring enzyme activities at very early substrate conversions requiring very low amount of enzymes.
# The assay procedure used may be the same as in Zhang et al., “Altered cofactor regulation with disease-associated p97/VCP mutations,” Proc. Natl. Acad. Sci. USA, 112(14), E1705-E1714 (2015).
# The BioMol Green ATPase assay procedure used was that which was disclosed in Zhang, et al., “Altered cofactor regulation with disease-associated p97/VCP mutations,” Proc. Natl. Acad. Sci. USA, 112(14), E1705-E1714 (2015). Compounds also show activity in a cell-based assay such as the ubiquitin assay.
# Sequence of p97 (P55072 whole entry): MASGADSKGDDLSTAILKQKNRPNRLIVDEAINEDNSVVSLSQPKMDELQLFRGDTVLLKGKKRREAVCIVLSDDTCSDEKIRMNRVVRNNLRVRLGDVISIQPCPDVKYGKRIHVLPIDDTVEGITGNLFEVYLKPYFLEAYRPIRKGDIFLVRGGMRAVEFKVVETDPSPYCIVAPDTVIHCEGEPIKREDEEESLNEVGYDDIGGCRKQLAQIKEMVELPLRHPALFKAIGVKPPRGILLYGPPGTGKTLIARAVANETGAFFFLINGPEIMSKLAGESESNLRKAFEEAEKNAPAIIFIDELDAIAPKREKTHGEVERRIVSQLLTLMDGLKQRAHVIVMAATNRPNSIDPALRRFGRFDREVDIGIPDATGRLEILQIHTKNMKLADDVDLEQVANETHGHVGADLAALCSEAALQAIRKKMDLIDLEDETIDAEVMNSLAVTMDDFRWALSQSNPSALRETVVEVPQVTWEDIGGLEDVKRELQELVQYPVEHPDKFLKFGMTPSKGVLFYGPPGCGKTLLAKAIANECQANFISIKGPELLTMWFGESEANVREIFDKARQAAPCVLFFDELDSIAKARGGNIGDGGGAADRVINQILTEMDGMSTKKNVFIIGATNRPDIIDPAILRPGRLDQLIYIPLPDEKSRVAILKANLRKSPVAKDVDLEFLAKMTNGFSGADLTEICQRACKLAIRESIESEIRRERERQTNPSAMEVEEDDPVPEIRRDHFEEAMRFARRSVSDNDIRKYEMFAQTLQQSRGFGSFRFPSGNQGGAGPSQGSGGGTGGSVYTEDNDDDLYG
row,IC50,Compound
1,< 1000 nM,[2H]C1([2H])C([2H])([2H])C([2H])([2H])C([2H])(Sc2nnc(COc3cc(F)c(-c4cn(CC(=O)N5CCNCC5)nn4)cc3F)n2-c2cccnc2)C1([2H])[2H] [Entry 6]
2,< 50 nM,[2H]C1([2H])C([2H])([2H])C([2H])([2H])C([2H])(Sc2nnc(COc3cc(F)c(-c4cnn(CC(=O)N5CCN(C(=O)OC(C)(C)C)CC5)n4)cc3F)n2-c2cccnc2)C1([2H])[2H] [Entry 3]
3,< 50 nM,CC(C)(C)OC(=O)N1CCN(C(=O)Cn2ncc(-c3cc(F)c(OCc4nnc(S[C@H]5C=CCCC5)n4-c4cccnc4)cc3F)n2)CC1 [Entry 17]
4,< 100 nM,CC(C)(C)OC(=O)N1CCN(CCn2ncc(-c3cc(F)c(OCc4nnc(SC5C=CCCC5)n4-c4cccnc4)cc3F)n2)CC1 (centres unmarked) [Entry 8]
5,< 50 nM,CC(C)(C)OC(=O)N1CCN(C(=O)Cn2ncc(-c3cc(F)c(OCc4nnc(SC5C=CCCC5)n4-c4cccnc4)cc3F)n2)CC1 (centres unmarked) [Entry 1]
6,< 50 nM,[2H]C1([2H])C([2H])([2H])C([2H])([2H])C([2H])(Sc2nnc(COc3cc(F)c(-c4cnn(CC(=O)N5CCNCC5)n4)cc3F)n2-c2cccnc2)C1([2H])[2H] [Entry 5]
7,< 1000 nM,[2H]C1([2H])C([2H])([2H])C([2H])([2H])C([2H])(Sc2nnc(COc3cc(F)c(-c4cn(CC(=O)N5CCN(C(=O)OC(C)(C)C)CC5)nn4)cc3F)n2-c2cccnc2)C1([2H])[2H] [Entry 4]
8,< 50 nM,CN1CCN(C(=O)Cn2ncc(-c3cc(F)c(OCc4nnc(SC5C=CCCC5)n4-c4cccnc4)cc3F)n2)CC1 (centres unmarked) [Entry 7]
9,< 1000 nM,CC(C)(C)OC(=O)N1CCN(C(=O)Cn2ncc(-c3cc(F)c(OCc4nnc(S[C@@H]5C=CCCC5)n4-c4cccnc4)cc3F)n2)CC1 [Entry 16]
10,< 1000 nM,CC(C)(C)OC(=O)N1CCN(C(=O)Cn2cc(-c3cc(F)c(OCc4nnc(SC5C=CCCC5)n4-c4cccnc4)cc3F)nn2)CC1 (centres unmarked) [Entry 2]

# The next lines start with the compound.
row,Compound,IC50
1,COC(=O)Cn1ncc(-c2cc(F)c(OCc3nnc(SC4C=CCCC4)n3-c3cccnc3)cc2F)n1 (centres unmarked) [Entry 20],< 50 nM
2,COC(=O)Cn1ncc(-c2cc(F)c(OCc3nnc(S[C@H]4C=CCCC4)n3-c3cccnc3)cc2F)n1 [Entry 23],< 50 nM
3,CN1CCC(NC(=O)OCCn2ncc(-c3cc(F)c(OCc4nnc(SC5C=CCCC5)n4-c4cccnc4)cc3F)n2)CC1 (centres unmarked) [Entry 10],< 50 nM
4,CN1CCC(NC(=O)OCCn2cc(-c3cc(F)c(OCc4nnc(SC5C=CCCC5)n4-c4cccnc4)cc3F)nn2)CC1 (centres unmarked) [Entry 19],< 1000 nM
5,CN1CCN(C(=O)OCCn2ncc(-c3cc(F)c(OCc4nnc(S[C@H]5C=CCCC5)n4-c4cccnc4)cc3F)n2)CC1 [Entry 12],< 100 nM
6,OCCn1cc(-c2cc(F)c(OCc3nnc(SC4C=CCCC4)n3-c3cccnc3)cc2F)nn1 (centres unmarked) [Entry 18],< 1000 nM
7,CN1CCN(C(=O)Cn2ncc(-c3cc(F)c(OCc4nnc(S[C@H]5C=CCCC5)n4-c4cccnc4)cc3F)n2)CC1 [Entry 13],< 50 nM
8,CNC(=O)OCCn1ncc(-c2cc(F)c(OCc3nnc(S[C@H]4C=CCCC4)n3-c3cccnc3)cc2F)n1 [Entry 11],< 50 nM
9,OCCn1ncc(-c2cc(F)c(OCc3nnc(S[C@H]4C=CCCC4)n3-c3cccnc3)cc2F)n1 [Entry 15],< 50 nM
10,O=C(O)Cn1ncc(-c2cc(F)c(OCc3nnc(SC4C=CCCC4)n3-c3cccnc3)cc2F)n1 (centres unmarked) [Entry 21],< 100 nM
11,Fc1cc(-c2cnn(CCOCc3ccccc3)n2)c(F)cc1OCc1nnc(SC2C=CCCC2)n1-c1cccnc1 (centres unmarked) [Entry 14],< 1000 nM
12,CN1CCC(NC(=O)Cn2ncc(-c3cc(F)c(OCc4nnc(SC5C=CCCC5)n4-c4cccnc4)cc3F)n2)CC1 (centres unmarked) [Entry 22],< 50 nM
13,OCCn1ncc(-c2cc(F)c(OCc3nnc(SC4C=CCCC4)n3-c3cccnc3)cc2F)n1 (centres unmarked) [Entry 9],< 50 nM
